# Reference: ChEMBL document CHEMBL1144728, “Pyrazolo-pyrimidines: a novel heterocyclic scaffold for potent and selective p38 alpha inhibitors” (Bioorg Med Chem Lett, 2008)
# Assays:
# [1] = Terminal half life in mouse at 10 mg/kg, po; assay type: ADME, organism-based; design: dose 10 mg/kg, route oral; details: in vivo
# Mus musculus = test: Volume of distribution in mouse at 10 mg/kg, po; assay type: ADME, organism-based; design: dose 10 mg/kg, route oral; details: in vivo
# Liver microsomes [2] = test: Metabolic stability in rat liver microsomes assessed as metabolic rate per mg of protein; assay type: ADME, Microsome
# Liver microsomes [3] = test: Metabolic stability in human liver microsomes assessed as metabolic rate per mg of protein; assay type: ADME, Microsome
# [4] = Oral bioavailability in mouse at 10 mg/kg; assay type: ADME, organism-based; details: in vivo
# [5] = Clearance in mouse at 10 mg/kg, po; assay type: ADME, organism-based; design: dose 10 mg/kg, route oral; details: in vivo
compound,measurement,setting,value
Cc1ccc(C(=O)Nc2ccon2)cc1Nc1ncnc2c1cnn2-c1ccccc1,half-life,[1],4.1 h
same,Vd,Mus musculus,1.3 L/kg
same,Stability,Liver microsomes [2],0.005 nmol/min/mg
same,Stability,Liver microsomes [3],0 nmol/min
same,bioavailability,[4],60%
same,CL/F,[5],5 mL/min/kg
